One test addresses T1, CNOT7 (Homo sapiens, UniProt Q9UIV1).
T1 construct: biotin (biotinylated); purchased Ichor Life Sciences
Briefly: Binding of compounds to CNOT7 by surface plasmon resonance (SPR). To be noted: Table 4; dissociation constant for CNOT7. On the procedure:
Surface plasmon resonance (SPR) was used to evaluate the binding of compounds to CNOT7. Experiments were performed on a Biacore 8K (Cytiva) with a running buffer consisting of 20 mM HEPES pH7.5, 100 mM KCl, 3 mM MgCl2, 1 mM TCEP, 0.05% tween-20, 2% DMSO. Briefly, biotinylated CNOT7 (Ichor Life Sciences) at a concentration of 70 μg/ml was immobilized to a streptavidin coated chip (Cytiva sensor chip SA) for 1200 sec at a flow rate of 5 μl/min (typical immobilization level 7,500 RU). For compound binding experiments, various concentrations of analyte were flowed over the chip with 120 sec association phase, 120 sec dissociation phase, at a flow rate of 30 ul/min and collection rate of 10 Hz. Reference channel subtraction and solvent correction were applied to all sensograms prior to data analysis. Sensograms were fit to 1:1 steady state affinity model. FIGS. 3 and 4 show the binding of exemplary compounds and the AMP control (a known CNOT7 active site binder) at various concentrations to CNOT7.
In general terms: SPR reads the build-up and loss of mass on a sensor chip optically.
T1 sequence (Q9UIV1 whole entry): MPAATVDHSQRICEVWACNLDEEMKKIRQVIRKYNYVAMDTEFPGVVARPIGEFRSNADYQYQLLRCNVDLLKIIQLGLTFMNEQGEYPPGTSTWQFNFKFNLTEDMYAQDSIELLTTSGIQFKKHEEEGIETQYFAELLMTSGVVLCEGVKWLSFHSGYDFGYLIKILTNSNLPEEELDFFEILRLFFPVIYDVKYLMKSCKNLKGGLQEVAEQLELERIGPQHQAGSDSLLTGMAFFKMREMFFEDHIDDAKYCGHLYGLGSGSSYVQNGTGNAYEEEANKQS
Turning to `O=C(CSc1cc[nH]c(=O)n1)NCc1ccc2c(c1)OCO2` [Compound I-2], the Kd (usually the equilibrium constant for the complex coming apart) is more than 25 µM.
`COc1cccc(CNC(=O)CSc2nc(=O)[nH]cc2C)c1` [Compound I-5] had a dissociation constant Kd of more than 25 µM.
In the case of `Cc1c[nH]c(=O)nc1SCC(=O)N(C)Cc1ccc2c(c1)OCO2` [Compound I-6], the Kd was more than 25 µM.

The same test, now with this note: Table 5; dissociation constant for CNOT7 by SPR.
For `COc1ccc(C(C)NC(=O)C2CC2c2nc(=O)[nH]cc2C)cc1` (mixture of isomers) [Compound I-239], the dissociation constant (Kd) is more than 25 µM.
Same read-out and setting: the result for `COc1ccc(C(C)NC(=O)C2CC2c2nc(=O)[nH]cc2C)cc1` (mixture of isomers) [Compound I-240] reads more than 25 µM; that for `COc1ccc([C@H](C)NC(=O)CSc2nc(=O)[nH]cc2C)cc1` [Compound I-26], more than 25 µM; that for `COc1ccc([C@@H](C)NC(=O)CSc2nc(=O)[nH]cc2C)cc1` [Compound I-27], 1 to 25 µM.
For `COc1ccc(C(C)NC(=O)CSc2nc(=O)[nH]cc2C)cc1` (stereo not shown) [Compound I-28], the Kd was in the range of 1 to 25 µM.
`COc1ccc(CNC(=O)COc2nc(=O)[nH]cc2C)cc1` [Compound I-31] had a Kd of more than 25 µM.
In turn, `COc1ccc(CNC(=O)CNc2nc(=O)[nH]cc2C)cc1` [Compound I-32] came in with a Kd of more than 25 µM.
`COc1ccc(CNC(=O)CCc2nc(=O)[nH]cc2C)cc1` [Compound I-34] displayed a Kd of 1 to 25 µM.
Regarding `COc1ccc(CNC(=O)CSc2nc(=O)[nH]cc2C)nc1` [Compound I-42], the dissociation constant Kd lay within 1 to 25 µM.
As to `COc1ccc(CNC(=O)CSc2nc(=O)[nH]cc2C)cn1` [Compound I-43], the Kd was more than 25 µM.
Take `COc1cnc(CNC(=O)CSc2nc(=O)[nH]cc2C)nc1` [Compound I-44]: the dissociation constant (Kd) lay within 1 to 25 µM.
Same read-out and setting: the result for `COc1ccc(C(CO)NC(=O)CSc2nc(=O)[nH]cc2C)cc1` (stereo not shown) [Compound I-46] reads 1 to 25 µM; that for `COc1ccc([C@@H](CO)NC(=O)CSc2nc(=O)[nH]cc2C)cc1` [Compound I-48], 1 to 25 µM.
With `Cc1c[nH]c(=O)nc1SCC(=O)NCc1ccc2c(c1)OCCO2` [Compound I-50], the dissociation constant (Kd) lay within 1 to 25 µM.
Regarding `Cc1c[nH]c(=O)nc1SCC(=O)NCc1ccc2oc(=O)[nH]c2c1` [Compound I-51], the dissociation constant (Kd) is more than 25 µM.
Regarding `Cc1c[nH]c(=O)cc1SCC(=O)NCc1ccc2c(c1)NC(=O)CO2` [Compound I-52], the Kd was more than 25 µM.
As to `Cc1c[nH]c(=O)nc1SCC(=O)NCc1ccc2c(c1)NCCO2` [Compound I-54], the Kd is more than 25 µM.
As for `Cc1c[nH]c(=O)nc1SCC(=O)NCc1ccc2c(c1)N(C)CCO2` [Compound I-55], the dissociation constant Kd is more than 25 µM.
`Cc1c[nH]c(=O)nc1SCC(=O)NCc1ccc2c(c1)CC(=O)N2` [Compound I-56] yielded a Kd of 1 to 25 µM.
With `Cc1c[nH]c(=O)nc1SCC(=O)NCc1ccc2c(c1)NC(=O)C2` [Compound I-57], the Kd was 1 to 25 µM.
The compound `COCCOCCC(Sc1nc(=O)[nH]cc1C)C(=O)NCc1ccc(OC)cc1` (stereo not shown) [Compound I-165, 4-(2-methoxyethoxy)-N-[(4-methoxyphenyl)methyl]-2-[(5-methyl-2-oxo-1H-pyrimidin-4-yl)sulfanyl]butanamide] came in with a Kd of 1 to 25 µM.
Take `COCCOCC[C@@H](Sc1nc(=O)[nH]cc1C)C(=O)NCc1ccc(OC)cc1` [Compound I-166, (2R)-4-(2-methoxyethoxy)-N-[(4-methoxyphenyl)methyl]-2-[(5-methyl-2-oxo-1H-pyrimidin-4-yl)sulfanyl]butanamide]: the Kd fell in the range of 1 to 25 µM.
On the same count and under the same terms, under `COCCOCC[C@H](Sc1nc(=O)[nH]cc1C)C(=O)NCc1ccc(OC)cc1` [Compound I-167, (2S)-4-(2-methoxyethoxy)-N-[(4-methoxyphenyl)methyl]-2-[(5-methyl-2-oxo-1H-pyrimidin-4-yl)sulfanyl]butanamide] stands 1 to 25 µM.

Staying with this test, now noted: Table 6; dissociation constant for CNOT7 by SPR.
`COc1cnc(CNC(=O)CSc2nc(=O)[nH]cc2C)cn1` [Compound I-45] had a dissociation constant Kd of 1 to 25 µM.
Still for that read-out and setting: under `Cc1c[nH]c(=O)nc1SCC(=O)NCc1ccc2c(c1)COC2` [Compound I-58] stands more than 25 µM.

The record behind these values is patent publication US20260199485A1, “RNA DEGRADERS AND USES THEREOF” (Arrakis Therapeutics, Inc., priority 2022, published 2026).
